From publication PMC11466185, “Mechanisms and efficacy of small molecule latency-promoting agents to inhibit HIV reactivation ex vivo” (JCI Insight, 2024)
“And” between values parts separate entries of the source, which are not always exact repeats. Equal entries are not always repeated.

What was measured:
[1] = test system: HIV transcripts (TAR, LLTR, Pol, PolyA, TatRev); test: Latency reversal assay: cell-associated HIV transcripts (RT-ddPCR) 24 hours after anti-CD3/CD28 activation of PBMCs from ART-suppressed PWH; assay type: cell-based; parameters: key to TatRev: % of activated DMSO control, normalized to 1 μg total RNA; Elongated (LLTR) HIV transcripts, median relative to activated DMSO, initial screening / Midtranscribed (Pol) HIV transcripts, median relative to activated DMSO, initial screening / Multiply spliced (TatRev) HIV transcripts, median relative to activated DMSO, initial screening: concentration or dose not given beside the values; conditions: for HIV transcriptional completion, ratio PolyA/LLTR: Figure 3C; for HIV multiple splicing, ratio TatRev/PolyA: Figure 3D; for Effect on HIV transcripts in the initial drug screen (in words): 24 hours after activation; for Pol HIV transcripts (DMSO αCD3/28 = 100) / PolyA HIV transcripts (DMSO αCD3/28 = 100) / TatRev HIV transcripts (DMSO αCD3/28 = 100): αCD3/28-activated, ruxolitinib 4μM, triptolide 25-50nM, alvocidib 40nM, dinaciclib 8nM, AZD4573 8nM, quercetin 5μM, pladienolide B 10nM, isoginkgetin 25μM, herboxidiene 5nM, KRIBB11 2.5μM, tanespimycin 5μM, mithramycin A 25nM; for PolyA/LLTR / TatRev/PolyA / LLTR/TAR: DMSO+CD3/28 = 1, Fig 3B, C and D; for PolyA / TatRev: DMSO+αCD3/28 = 100, Fig 3A
Outline: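 PBMCs from ART-suppressed people with HIV (6 × 10^6 cells/well) treated with drug in DMSO, activated with anti-CD3/CD28 beads with antiretrovirals, harvested after 24 hours. TAR, LLTR, Pol, PolyA and TatRev transcripts measured by RT-ddPCR, normalized to 1 μg total RNA, expressed as % of activated DMSO control.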

PBMCs = test: Total number of live cells (proliferation) by trypan blue staining at day 6; assay type: cell-based, human; conditions: for Total live cell numbers (proliferation) compared with activated DMSO (in words) / Total number of live cells (Fig 6A): day 6; for Total live cell numbers (proliferation) compared with activated DMSO (in words): Figure 6A; for Fig 6B: total live cells relative to DMSO+CD3/28: DMSO+CD3/28 = 100
Outline: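 PBMCs with CD3/CD28 activating beads (except unactivated DMSO control) and compound for 6 days. Live cells counted by trypan blue and expressed as % of activated DMSO; Wilcoxon signed-rank test.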

[2] = 24 hours, compared with activated DMSO
[3] = initial screening, 2 participants, 24 hours, Supplemental Figure 2
[4] = 100nM, 24 h after αCD3/28 activation, each column one participant
[5] = 10/100nM, 24 h after αCD3/28 activation, each column one participant

CC(C)[C@]12O[C@H]1[C@@H]1O[C@]13[C@]1(O[C@H]1C[C@H]1C4=C(CC[C@@]13C)C(=O)OC4)[C@@H]2O [triptolide]
HIV transcriptional elongation, ratio LLTR/TAR ([1]; 24 hours, compared with activated DMSO, Figure 3B): no impact
HIV transcriptional completion, ratio PolyA/LLTR [1, 2]: reduced completion
HIV multiple splicing, ratio TatRev/PolyA [1, 2]: reduce HIV multiple splicing
Decrease in initiated TAR transcripts ([1]; after activation, relative to activated DMSO): more than 95%
Multiply spliced (TatRev) HIV transcripts, median relative to activated DMSO, initial screening ([1]; initial screening, 2 participants, 24 hours, Figure 1B, Supplemental Figure 2): 0%
Elongated (LLTR) HIV transcripts, median relative to activated DMSO, initial screening [1, 3]: 21%
Midtranscribed (Pol) HIV transcripts, median relative to activated DMSO, initial screening [1, 3]: 9%
Total live cell numbers (proliferation) compared with activated DMSO (in words) (PBMCs): significantly lower

mithramycin A
Effect on HIV transcripts in the initial drug screen (in words) ([1]; initial screening, 2 participants): no effect after 24 hours
Effect on HIV transcripts in the initial drug screen (in words) ([1]; initial screening, 2 participants, listed as Mithramycin A): lack of an effect at 24 hours
Total live cell numbers (proliferation) compared with activated DMSO (in words) (PBMCs): significantly lower

pladienolide B
LLTR HIV transcripts (DMSO+αCD3/28 = 100) [1, 4]: 105.44 and 112.17
Pol HIV transcripts (DMSO+αCD3/28 = 100) [1, 4]: 61.14 and 46.29
TatRev HIV transcripts (DMSO+αCD3/28 = 100) [1, 4]: 0
LLTR HIV transcripts (DMSO+αCD3/28 = 100) [1, 5]: 105.44 and 112.17 and 22.15 and 34.23 and 14.5 and 7.78 and 32.23
Pol HIV transcripts (DMSO+αCD3/28 = 100) [1, 5]: 61.14 and 46.29 and 2.85 and 58.11 and 12.19 and 5.03 and 29.65
PolyA HIV transcripts (DMSO+αCD3/28 = 100) [1, 5]: 25.19 and 8
TAR HIV transcripts (DMSO+αCD3/28 = 100) [1, 5]: 70.83 and 56.32 and 43.76 and 138.46
TatRev HIV transcripts (DMSO+αCD3/28 = 100) [1, 5]: 0 (4×) and 2.98 and 6.21 and 11.47
HIV transcriptional completion, ratio PolyA/LLTR [1, 2]: reduced
HIV multiple splicing, ratio TatRev/PolyA [1, 2]: reduce HIV multiple splicing
Reduction of multiply spliced or completed HIV transcripts in drug screen (selection as candidate LPA) ([1]; initial screening, 2 participants, 24 hours): more than 50%
Completed (PolyA) HIV transcripts, median relative to activated DMSO, initial screening [1, 3]: 17%
Pol HIV transcripts (DMSO αCD3/28 = 100) ([1]; participant 2027): 56.14
PolyA HIV transcripts (DMSO αCD3/28 = 100) ([1]; participant 2027): 45.13
TatRev HIV transcripts (DMSO αCD3/28 = 100) ([1]; participant 2027): 0
Pol HIV transcripts (DMSO αCD3/28 = 100) ([1]; participant 2147a): 74.51
PolyA HIV transcripts (DMSO αCD3/28 = 100) ([1]; participant 2147a): 38.34
TatRev HIV transcripts (DMSO αCD3/28 = 100) ([1]; participant 2147a): 22.95
Pol HIV transcripts (DMSO αCD3/28 = 100) ([1]; participant 2161): 44.19
PolyA HIV transcripts (DMSO αCD3/28 = 100) ([1]; participant 2161): 152.38
TatRev HIV transcripts (DMSO αCD3/28 = 100) ([1]; participant 2161): 381.82
PolyA HIV transcripts (DMSO αCD3/28 = 100) ([1]; participant 2461): 53.85
Pol HIV transcripts (DMSO αCD3/28 = 100) ([1]; participant 2747): 21.03
PolyA HIV transcripts (DMSO αCD3/28 = 100) ([1]; participant 2747): 65.33
TatRev HIV transcripts (DMSO αCD3/28 = 100) ([1]; participant 2747): 0
Pol HIV transcripts (DMSO αCD3/28 = 100) ([1]; participant 2750): 212.24
PolyA HIV transcripts (DMSO αCD3/28 = 100) ([1]; participant 2750): 74.85
TatRev HIV transcripts (DMSO αCD3/28 = 100) ([1]; participant 2750): 155
Multiply spliced HIV transcripts (TatRev) (Fig 1B) ([1]; study participant 150a, 24 hours): 0 % of activated DMSO
PolyA/LLTR ([1]; study participant 150a): 0.2389
TatRev/PolyA ([1]; study participant 150a): 0
PolyA ([1]; study participant 150a): 25.19
TatRev ([1]; study participant 150a): 0
Multiply spliced HIV transcripts (TatRev) (Fig 1B) ([1]; study participant 152, 24 hours): 0 % of activated DMSO
PolyA/LLTR ([1]; study participant 152): 0.07129
TatRev/PolyA ([1]; study participant 152): 0
PolyA ([1]; study participant 152): 8
TatRev ([1]; study participant 152): 0
PolyA/LLTR ([1]; study participant 163): 0.2589
TatRev/PolyA ([1]; study participant 163): 0
PolyA ([1]; study participant 163): 5.73
TatRev ([1]; study participant 163): 0
LLTR/TAR ([1]; study participant 1379): 0.1778
PolyA/LLTR ([1]; study participant 1379): 0.4115
TatRev/PolyA ([1]; study participant 1379): 0
PolyA ([1]; study participant 1379): 3.2
TatRev ([1]; study participant 1379): 0
LLTR/TAR ([1]; study participant 2147b): 0.4833
PolyA/LLTR ([1]; study participant 2147b): 0.2849
TatRev/PolyA ([1]; study participant 2147b): 0.3058
PolyA ([1]; study participant 2147b): 9.75
TatRev ([1]; study participant 2147b): 2.98
LLTR/TAR ([1]; study participant 2256): 0.2575
PolyA/LLTR ([1]; study participant 2256): 0.2751
TatRev/PolyA ([1]; study participant 2256): 1.556
PolyA ([1]; study participant 2256): 3.99
TatRev ([1]; study participant 2256): 6.21
LLTR/TAR ([1]; study participant 5557): 0.2328
PolyA/LLTR ([1]; study participant 5557): 0.5006
TatRev/PolyA ([1]; study participant 5557): 0.7112
PolyA ([1]; study participant 5557): 16.13
TatRev ([1]; study participant 5557): 11.47
Total live cell numbers (proliferation) compared with activated DMSO (in words) (PBMCs): significantly lower
Fig 6B: total live cells relative to DMSO+CD3/28 (PBMCs; participant 2027): 130.18
Fig 6B: total live cells relative to DMSO+CD3/28 (PBMCs; participant 2147a): 87.14
Fig 6B: total live cells relative to DMSO+CD3/28 (PBMCs; participant 2147b): 432.65
Fig 6B: total live cells relative to DMSO+CD3/28 (PBMCs; participant 2161): 52.54
Fig 6B: total live cells relative to DMSO+CD3/28 (PBMCs; participant 2461): 69.04
Fig 6B: total live cells relative to DMSO+CD3/28 (PBMCs; participant 2747): 68.1
Total number of live cells (Fig 6A) (PBMCs; study participant 150a): 26.64 % of activated DMSO
Total number of live cells (Fig 6A) (PBMCs; study participant 156): 40.97 % of activated DMSO
Total number of live cells (Fig 6A) (PBMCs; study participant 163): 70.82 % of activated DMSO
Total number of live cells (Fig 6A) (PBMCs; study participant 2027): 28.6 % of activated DMSO
Total number of live cells (Fig 6A) (PBMCs; study participant 2147a): 113.84 % of activated DMSO
Total number of live cells (Fig 6A) (PBMCs; study participant 2147b): 53.49 % of activated DMSO
Total number of live cells (Fig 6A) (PBMCs; study participant 2161): 58.44 % of activated DMSO
Total number of live cells (Fig 6A) (PBMCs; study participant 2461): 29.57 % of activated DMSO
Total number of live cells (Fig 6A) (PBMCs; study participant 2747): 105.45 % of activated DMSO
Total number of live cells (Fig 6A) (PBMCs; study participant 2750): 17.9 % of activated DMSO
